From PMC5099944, “Design, synthesis and biological evaluation of hybrids of β-carboline and salicylic acid as potential anticancer and apoptosis inducing agents” (Scientific Reports, 2016)

Columns and labels:
SMMC-7721 cells [1] = experiment: Flow cytometry assay of cell apoptosis (FITC-Annexin V/PI); format: cell-based, human; details: 48 h
Description: To determine whether apoptosis is involved in the anti-proliferative effects of 8h, apoptosis assay was performed using SMMC-7721 cells. The cells were incubated with either vehicle alone, different concentrations of 8h (7.0 or 14 μM), or 14 μM 5-FU for 48 h, and then stained with FITC-Annexin V and propidium iodide (PI). The percentages of apoptotic SMMC-7721 cells were determined by flow cytometry analysis. In the vehicle group, the occurrence of SMMC-7721 cell apoptosis was minimal. […] Low concentration of 8h (7.0 μM) induced 46% SMMC-7721 cell apoptosis, while the higher dose (14 μM) of 8h induced 63% SMMC-7721 cell apoptosis.
Figure 4 Compound 8h induced SMMC-7721 cell apoptosis in vitro. SMMC-7721 cells were incubated with the indicated concentrations of 8h and 14 μM 5-FU for 48 h, and the cells were stained with FITC-Annexin V and PI, followed by flow cytometry analysis. (A) Flow cytometry analysis. (B) Quantitative analysis of apoptotic cells. Data are expressed as means ± SD of the percentages of apoptotic cells from three independent experiments. *P < 0.01 vs control.
SMMC-7721 cells were cultured overnight and incubated in triplicate with compound 8h (7.0 and 14 μM), 5-FU (14 μM), or vehicle for 48 h. The cells were harvested, and stained with FITC-Annexin V and PI (BioVision) at room temperature for 15 min. The percentage of apoptotic cells was determined by flow cytometry (Beckman Coulter) analysis.

H460 cells = experiment: MTT assay, proliferation of H460 cells; format: cell-based; details: NCI-H460, 48 h, H460 human lung cancer cells, read-out: In vitro cytotoxicity (IC50) H460
Description: The in vitro antitumor activities of the synthesized compounds 7a-l and 8a-l against five human cancer cells were evaluated in MTT assays using 5-fluorouracil (5-FU) and harmine as positive controls. These cells are human hepatocellular carcinoma cells (SMMC-7721 and Hep G2), human colon cancer cell lines (HCT116), human bladder carcinoma cells (EJ), and human lung cancer cells (H460).
Hepatocellular carcinoma cells (SMMC-7721 and Hep G2), Human colon cancer cell lines (HCT116), human bladder carcinoma cells (EJ) or human lung cancer cells (H460) at 10^4 cells per well were cultured in 10% FBS DMEM in 96-well flat-bottom microplates overnight. The cells were incubated in triplicate with, or without, different concentrations of each test compound for 48 h. During the last 4 h incubation, 30 μL of tetrazolium dye (MTT) solution (5 mg mL^−1) was added to each well. The resulting MTT-formazan crystals were dissolved in 150 μL DMSO, and absorbance was measured spectrophotometrically at 570 nm using an ELISA plate reader. The inhibition induced by each test compound at the indicated concentrations was expressed as a percentage. The concentration required for 50% inhibition (IC50) was calculated using the software (GraphPadPrism Version 4.03).

SMMC-7721 cells [2] = experiment: Mitochondrial membrane potential assay (JC-1); format: cell-based, human; details: 14 μM, 48 h (method b112 says 24 h)
Description: The mitochondrial pathway plays an important role in cell apoptosis. To determine whether mitochondria is involved in the apoptosis-inducing effect of 8h, changes in mitochondrial membrane potential were investigated with a fluorescent probe JC-1. JC-1 is a lipophilic cationic dye which facilitates the penetration of mitochondrial membrane due to the decrease of membrane potential, indicated by a fluorescence shift from red to green. The cells were treated with vehicle alone, with different concentrations of 8h (7.0 or 14 μM), or 14 μM 5-FU for 48 h, and then stained with JC-1. […] The percentage of cells emitting green fluorescence reached 57% at the higher dose of 14 μM. The observations indicate that 8h plays a role in the dissipation of mitochondrial membrane potential and the apoptosis effect of 8h is associated with mitochondrial depolarization in cells.
Mitochondrial membrane potential was assessed using a Beyotime (China) kit with JC-1. Briefly, the SMMC-7721 cells in the logarithmic growth phase were treated with 8h (7.0 or 14 μM), 5-FU (14 μM), or vehicle control for 24 h. The cells were harvested, and then labeled with JC-1 in accordance with the manufacturer’s instructions. The samples labeled with JC-1 were analyzed via flow cytometry. For the detection of JC-1, excitation was set at 530 nm, and emissions collected at 585 nm.

Compound: Cc1nc(C(=O)NCCCCCNC(=O)c2ccccc2O)cc2c1[nH]c1ccccc12 [8h, N-(5-(2-Hydroxybenzamido)pentyl)-1-methyl-9H-pyrido[3,4-b]indole-3-carboxamide]
- SMMC-7721 cell apoptosis (percentage of apoptotic cells) (SMMC-7721 cells [1]; 7.0 μM): 46%
- SMMC-7721 cell apoptosis (percentage of apoptotic cells) (SMMC-7721 cells [1]; 14 μM): 63%
- IC50 (H460 cells): 13.1 µM
- Percentage of cells emitting green fluorescence (JC-1) (SMMC-7721 cells [2]): 57%
